Data: ChEMBL document CHEMBL4330149, “Lignan Dimers from Forsythia viridissima Roots and Their Antiviral Effects” (J Nat Prod, 2019)

Key:
[1] = Selectivity index, ratio of CC50 for human HeLa cells to IC50 for Human rhinovirus 1B infected in human HeLa cells; type: toxicity, cell-based; conditions: read-out: Ratio CC50/IC50
[2] = Cytotoxicity against human HeLa cells assessed as growth inhibition after 2 days by SRB assay; type: cell-based
rhinovirus A1B = experiment: Antiviral activity against Human rhinovirus 1B infected in human HeLa cells assessed as reduction in virus-induced cytopathic effect after 2 days by SRB staining based microscopic method; type: functional, organism-based; conditions: Rhinovirus A, 48 h
Coxsackievirus B3 = experiment: Antiviral activity against Coxsackievirus B3 infected in African green monkey Vero cells assessed as reduction in virus-induced cytopathic effect after 2 days by SRB staining based microscopic method; type: functional, organism-based; conditions: Enterovirus B, 48 h
[3] = Cytotoxicity against African green monkey Vero cells assessed as growth inhibition after 2 days by SRB assay; type: cell-based; conditions: chlorocebus sabaeus
[4] = Selectivity index, ratio of CC50 for African green monkey Vero cells to IC50 for Coxsackievirus B3 infected in African green monkey Vero cells; type: toxicity; conditions: read-out: Ratio CC50/IC50

Work on `COc1ccc(C[C@H]2COC(=O)[C@@H]2Cc2ccc(Oc3cc(C[C@H]4C(=O)OC[C@@H]4Cc4ccc(OC)c(OC)c4)cc(OC)c3O)c(OC)c2)cc1OC` yielded a selectivity ratio [1] of over 3.8, a CC50 at 48 h [2] of over 50 µM and an IC50 (rhinovirus A1B) of 13 µM.
With `COc1cc(C[C@H]2COC(=O)[C@@H]2Cc2cc(OC)c(O)c(-c3cc(C[C@H]4C(=O)OC[C@@H]4Cc4ccc(OC)c(OC)c4)cc(OC)c3O)c2)ccc1O` the selectivity ratio [1] was over 1.1, the CC50 at 48 h [2] was over 50 µM and the IC50 (rhinovirus A1B) was 47.5 µM.
For `COc1cc(C[C@H]2C(=O)OC[C@@H]2Cc2cc(OC)c(O)c(-c3cc(C[C@H]4C(=O)OC[C@@H]4Cc4ccc(OC)c(OC)c4)cc(OC)c3O)c2)ccc1O`, the selectivity ratio [1] was over 1.1, the CC50 at 48 h [2] was over 50 µM and the IC50 (rhinovirus A1B) was 45.7 µM.
`COc1cc([C@@H](OC)[C@@H]2CO[C@H](c3ccc(O)c(OC)c3)[C@@H]2CO)ccc1O` (relative stereo) showed an IC50 (Coxsackievirus B3) of 15.4 µM, a CC50 at 48 h [3] of over 50 µM and a selectivity ratio [4] of over 3.2.
In the case of `COc1cc(C[C@H]2COC(=O)[C@@H]2Cc2ccc(O)c(OC)c2)ccc1O` [MATAIRESINOL], the selectivity ratio [1] is reported as over 1.2, the CC50 at 48 h [2] is reported as over 50 µM and the IC50 (rhinovirus A1B) is reported as 43.2 µM.
Work on `CCOC(=O)/C=C/[C@H](C[C@@H]1CCNC1=O)NC(=O)[C@@H](CC(=O)[C@@H](NC(=O)c1cc(C)on1)C(C)C)Cc1ccc(F)cc1` [RUPINTRIVIR] yielded a CC50 at 48 h [2] of over 50 µM, an IC50 (Coxsackievirus B3) of 6.6 µM and a CC50 at 48 h [3] of over 50 µM. The selectivity ratio [4] was over 7.6.
